Structures are written as SMILES. Where two headings read alike, the source gives them in different places.

The test system of test [1] is PC-3 cells. Put plainly: Antiproliferative activity, Alamar Blue assay, PC-3 cells. Type of test: cell-based, human. Conditions: for IC50: Homo sapiens, PC-3, PC3 cells, read-out: PC3 antiproliferative activity pIC50 (converted). Summed up:
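Resazurin-based fluorescence (540 nm ex/590 nm em) measured after 4-day compound treatment plus 24 hrs dye incubation at 37° C. Cells plated at 4.5×10^3 cells/ml, adhered 24 hr first. pIC50 from probit-derived IC50 on % viable cells versus untreated, triplicate wells.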
In general terms: Alamar Blue is a resazurin reagent that responds to reducing activity.

Test [2] has as its system HCT116 cells. Put plainly: Antiproliferative activity, Alamar Blue assay, HCT116 cells. Type of test: cell-based, human. Conditions: for IC50: Homo sapiens, HCT-116, HCT116 cells, read-out: HCT116 antiproliferative activity pIC50 (converted). Also on record: key to HCT116 antiproliferative activity pIC50: pIC50 = -log IC50 (IC50: conc. reducing growth to 50% of control). Summed up:
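Readout is resazurin fluorescence (ex 540, em 590 nm) after a 4 h dye incubation at 37 °C, following 4-day compound treatment of HCT116 cells plated 24 h earlier. Results expressed as % viable cells versus untreated; pIC50 derived from probit-fitted IC50.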

`CCc1cc2ccc(C(C)(C#N)Cc3cccc(C#N)n3)cc2[nH]c1=O` (single isomer, unassigned) [Compound 207]: in test [1] (PC3 cells, Alamar Blue), the “PC3 antiproliferative activity pIC50” value came to 6.8. Moreover, in test [2] (HCT116 cells, Alamar Blue), the “HCT116 antiproliferative activity pIC50” value is given as 7.0.

In the case of `CCc1cc2ccc(C(C)(C#N)Cc3cccc(CO)n3)cc2[nH]c1=O` (stereo not shown) [Compound 345], the IC50 in test [1] (Alamar Blue) is 3980 nM; in test [2] (Alamar Blue) it was 2000 nM.

Regarding `CCc1cc2ccc(C(C)(C#N)Cc3cnc(OC)nc3Cl)cc2[nH]c1=O` (stereo not shown) [Compound 356], the figures for the IC50 in test [1] (Alamar Blue) and in test [2] (Alamar Blue) were 794 nM and 631 nM, respectively.

With `CCc1cc2ccc([C@](C)(C#N)[C@H](C)c3ccccc3)cc2[nH]c1=O` [Compound 200], the IC50 was 1000 nM in test [1] (Alamar Blue) and 1580 nM in test [2] (Alamar Blue).

Consider `CCC[C@](C#N)(Cc1ccccc1)c1ccc2cc(CC)c(=O)[nH]c2c1` (single isomer, unassigned) [Compound 264], for which the IC50 in test [1] (Alamar Blue) and in test [2] (Alamar Blue) was 10000 nM throughout.

Consider `C#Cc1cccc(C[C@@](C)(C#N)c2ccc3cc(CC)c(=O)[nH]c3c2)c1` [Compound 3], for which the IC50 in test [1] (Alamar Blue) is 100 nM; in test [2] (Alamar Blue), 39.8 nM.

Take `CCc1cc2ccc(C(C)(C#N)Cc3nc(C)cc(C)n3)cc2[nH]c1=O` (stereo not shown) [Compound 368]: the IC50 in test [1] (Alamar Blue) is 1260 nM; in test [2] (Alamar Blue), 1580 nM.

Turning to `CCc1cc2cc(OCCOC)c(C(C)(C#N)Cc3cccc(C#N)c3)cc2[nH]c1=O` (stereo not shown) [Compound 182], the IC50 in test [1] (Alamar Blue) is 5010 nM; in test [2] (Alamar Blue) it was 6310 nM.

Turning to `Cc1cc2ccc(C(C)(C#N)Cc3cccc(Cl)c3)cc2[nH]c1=O` (stereo not shown) [Compound 37], the IC50 in test [1] is 398 nM; in test [2] it was 316 nM.

With `Cc1cc2ccc([C@@](C)(C#N)Cc3cccc(C#N)c3)cc2[nH]c1=O` [Compound 35], the IC50 in test [1] is greater than 10000 nM; in test [2], 7940 nM.

Regarding `CCc1cc2ccc(C(C)(C#N)Cc3cccc(CN)c3)cc2[nH]c1=O` (stereo not shown) [Compound 290], the IC50 was 501 nM in test [1] (Alamar Blue) and 158 nM in test [2] (Alamar Blue).

As to `CCc1cc2ccc(C(C)(C#N)Cc3nccc(OC)n3)cc2[nH]c1=O` (stereo not shown) [Compound 360], the IC50 in test [1] (Alamar Blue) and in test [2] (Alamar Blue) was 1260 nM each time.

As to `CCc1cc2ccc(C(C)(C#N)CN(C)Cc3ccccc3)cc2[nH]c1=O` (stereo not shown) [Compound 189], the IC50 in test [1] (Alamar Blue) was 3160 nM; in test [2] (Alamar Blue) it was 1260 nM.

As to `CCc1cc2ccc(C(C)(C#N)Cc3cc(Cl)nc(Cl)c3)cc2[nH]c1=O` (stereo not shown) [Compound 372], the IC50 in test [1] (Alamar Blue) is 501 nM; in test [2] (Alamar Blue), 398 nM.

The values are drawn from patent US8778966B2, “Quinolinone derivatives as PARP and tank inhibitors” (Janssen Pharmaceutica, NV, priority 2007, dated 2014).
